Assay results published in patent publication US20120065198A2, “Detection and Treatment of Schizophrenia” (Tokai University Educational System, priority 2007, published 2012).

Columns and labels:
pentosidine formation [1] = test: Inhibitory effects of phenylene derivatives (II) on AGEs (pentosidine) formation; assay type: biochemical; set-up: AGE Formation Inhibition Ratio (%): concentration or dose not given beside the values; conditions: same method used in Test Example 1
Experimental: (§1) Plasma was collected from hemodialysis patients prior to dialysis with the patients' consent, and the plasma was filtered and sterilized. To the plasma (450 μL) was added solutions of TM-2002 in dimethylsulfoxide (50 μL) (final concentrations: 0.8, 2.0, and 5.0 mM), and the mixtures were incubated for 1 week at 37° C. The levels of the pentosidine formation were measured.
Pentosidine was measured as follows. To each sample (50 μL) after incubation was added an equal volume of 10% trichloroacetic acid, and the mixture was subsequently centrifuged at 5,000 g for 5 minutes. After the supernatant was removed, the pellet was washed with 5% trichloroacetic acid (300 μL). The pellet was dried under reduced pressure, and subsequently hydrolyzed in a 6N HCl solution (100 μL) under a nitrogen atmosphere for 16 hours at 110° C. To the acid hydrolysate was then added 5N NaOH (100 μL) and 0.5 M phosphate buffer (pH 7.4) (200 μL); the mixture was subsequently filtered through a micropore filter with 0.5 μm pores and diluted with PBS. The concentration of the released pentosidine was measured by reverse-phase HPLC using a fluorescence detector (RF-10A, Shimadzu Corporation) (Miyata, T. et al.; Proc. Natl. Acad. Sci. USA, Vol. 93, p. 2353-2358, 1996). The effluent was monitored at the excitation/emission wavelength of 335/385 nm. Synthetic pentosidine was used as the reference material. The detection limit of pentosidine was 0.1 pmol/mg protein. […]

pentosidine formation [2] = test: Inhibitory activity on pentosidine formation, samples incubated with BSA and arabinose; assay type: biochemical; conditions: 5 mM drug; incubated with BSA and arabinose instead of patient plasma
Experimental: as §1
Pentosidine was measured as follows. To each sample (50 μL) after incubation was added an equal volume of 10% trichloroacetic acid, and the mixture was subsequently centrifuged at 5,000 g for 5 minutes. After the supernatant was removed, the pellet was washed with 5% trichloroacetic acid (300 μL). The pellet was dried under reduced pressure, and subsequently hydrolyzed in a 6N HCl solution (100 μL) under a nitrogen atmosphere for 16 hours at 110° C. To the acid hydrolysate was then added 5N NaOH (100 μL) and 0.5 M phosphate buffer (pH 7.4) (200 μL); the mixture was subsequently filtered through a micropore filter with 0.5 μm pores and diluted with PBS. The concentration of the released pentosidine was measured by reverse-phase HPLC using a fluorescence detector (RF-10A, Shimadzu Corporation) (Miyata, T. et al.; Proc. Natl. Acad. Sci. USA, Vol. 93, p. 2353-2358, 1996). The effluent was monitored at the excitation/emission wavelength of 335/385 nm. Synthetic pentosidine was used as the reference material. The detection limit of pentosidine was 0.1 pmol/mg protein.
(2) Other edaravone analogues (Compounds (1) or (2)) were investigated for their inhibitory activities on pentosidine formation in the same manner as in Section (1) above, except that the samples were incubated with BSA and arabinose instead of the patient plasma. In the tables, “-” means that the test was not conducted.

| Compound | AGE Formation Inhibition Ratio (%) (pentosidine formation [1]) | Pentosidine Formation Ratio (%) (pentosidine formation [1]) | Pentosidine Formation Ratio (%) at 5 mM Drug Concentration (pentosidine formation [2]) [%] |
| --- | --- | --- | --- |
| O=C(O)c1cccc(N(Cc2ccc(-c3ccccc3-c3nnn[nH]3)cc2)C(=O)CCc2ccccc2)c1 [(II-1)] | 80 | 20 |  |
| CCCCCN(Cc1ccc(C2SC(=O)NC2=O)cc1)c1cccc(C(=O)O)c1 (stereo not drawn) [(II-6)] | 80 | 20 |  |
| CC1CCc2ccc(C(=O)O)cc2N1Cc1ccc(C2SC(=O)NC2=O)cc1 (stereo not drawn) [(II-7)] | 87 | 13 |  |
| CS(=O)(=O)N(Cc1ccc(C2SC(=O)NC2=O)cc1)c1ccccc1 (stereo not drawn) [(II-8)] | 81 | 19 |  |
| CCCCS(=O)(=O)N(Cc1ccc(C2SC(=O)NC2=O)cc1)c1ccccc1 (stereo not drawn) [(II-9)] | 80 | 20 |  |
| CS(=O)(=O)N(Cc1ccc(C2SC(=O)NC2=O)cc1)c1cccc(C(=O)O)c1 (stereo not drawn) [(II-10)] | 86 | 14 |  |
| CCCCS(=O)(=O)N(Cc1ccc(C2SC(=O)NC2=O)cc1)c1cccc(C(=O)O)c1 (stereo not drawn) [(II-11)] | 89 | 11 |  |
| O=C1NC(=O)C(c2ccc(Cn3c(-c4ccccn4)nc4ccccc43)cc2)S1 (stereo not drawn) [(II-15)] | 80 | 20 |  |
| O=C1NC(=O)C(c2ccc(Cn3ccnc3-c3ccccc3)cc2)S1 (stereo not drawn) [(II-16)] | 85 | 15 |  |
| CCCc1cc2ccc(C(=O)O)cc2n(Cc2ccc(C3SC(=O)NC3=O)cc2)c1=O (stereo not drawn) [(II-17)] | 84 | 16 |  |
| O=C1NC(=O)C(c2ccc(CN(C(=O)C3CCCCC3)c3cccc(C(=O)O)c3)cc2)S1 (stereo not drawn) [(II-18)] | 85 | 15 |  |
| O=C1NC(=O)C(c2ccc(CN(C(=O)c3cccnc3)c3cccc(C(=O)O)c3)cc2)S1 (stereo not drawn) [(II-19)] | 80 | 20 |  |
| O=C1NC(=O)C(c2ccc(CN(C(=O)CCc3ccccc3)c3cccc(C(=O)O)c3)cc2)S1 (stereo not drawn) [(II-20)] | 92 | 8 |  |
| O=C1NC(=O)C(c2ccc(CN(C(=O)c3ccc(-c4ccccc4)cc3)c3cccc(C(=O)O)c3)cc2)S1 (stereo not drawn) [(II-21)] | 98 | 2 |  |
| O=C1NC(=O)C(c2ccc(CN(c3cccc(C(=O)O)c3)S(=O)(=O)c3ccccc3)cc2)S1 (stereo not drawn) [(II-22)] | 85 | 15 |  |
| Cc1ccc(S(=O)(=O)N(Cc2ccc(C3SC(=O)NC3=O)cc2)c2cccc(C(=O)O)c2)cc1 (stereo not drawn) [(II-23)] | 90 | 10 |  |
| O=C1NC(=O)C(c2ccc(CN(c3cccc(C(=O)O)c3)S(=O)(=O)c3ccc(-c4ccccc4)cc3)cc2)S1 (stereo not drawn) [(II-24)] | 91 | 9 |  |
| O=C1NC(=O)C(c2ccc(CN(c3cccc(C(=O)O)c3)S(=O)(=O)c3ccc4ccccc4c3)cc2)S1 (stereo not drawn) [(II-25)] | 99 | 1 |  |
| CCCC1CCc2ccc(C(=O)O)cc2N(Cc2ccc(C3SC(=O)NC3=O)cc2)C1=O (stereo not drawn) [(II-28)] | 84 | 16 |  |

| Compound | AGE Formation Inhibition Ratio (%) (pentosidine formation [1]) | Pentosidine Formation Ratio (%) (pentosidine formation [1]) | Pentosidine Formation Ratio (%) at 5 mM Drug Concentration (pentosidine formation [2]) [%] |
| --- | --- | --- | --- |
| CC1(C)Cc2ccc(C(=O)O)cc2N(Cc2ccc(C3SC(=O)NC3=O)cc2)C1=O (stereo not drawn) [(II-29)] | 86 | 14 |  |
| O=C1NC(=O)C(c2ccc(CN3C(=O)C4(CC4)Cc4ccc(C(=O)O)cc43)cc2)S1 (stereo not drawn) [(II-30)] | 87 | 13 |  |
| O=C(O)c1cccc(N(CCc2ccccc2)Cc2ccc(-c3ccccc3-c3nnn[nH]3)cc2)c1 [(II-32)] | 81 | 19 |  |
| Cc1oc(-c2ccccc2)nc1CC(=O)N(Cc1ccc(C2SC(=O)NC2=O)cc1)c1cccc(C(=O)O)c1 (stereo not drawn) [(II-33)] | 82 | 18 |  |
| O=C(O)c1cccc(N(CC(=O)c2ccccc2)Cc2ccc(-c3ccccc3-c3nnn[nH]3)cc2)c1 [(II-42)] | 93 | 7 |  |
| Cc1nc(-c2ccc(S(=O)(=O)N(Cc3ccc(C4SC(=O)NC4=O)cc3)c3cccc(C(=O)O)c3)cc2)cs1 (stereo not drawn) [(II-63)] | 80 | 20 |  |
| O=C1NC(=O)C(c2ccc(CN(Cc3ccc(-c4ccccc4)cc3)c3cccc(C(=O)O)c3)cc2)S1 (stereo not drawn) [(II-68)] | 80 | 20 |  |
| CC1=NN(c2ccccc2)C(=O)C1CCC(=O)O (stereo not drawn) [compound 7] |  |  | 64.64 |
| CC1=NN(c2ccccc2)C(=O)C1C(c1ccccc1)c1c(C)nn(-c2ccccc2)c1O (stereo not drawn) [compound 9, 4-[(5-hydroxy-3-methyl-1-phenyl-1H-pyrazol-4-yl)-phenyl-methyl]-5-methyl-2-phenyl-2,4-dihydro-pyrazol-3-one] |  |  | 7.52 |
| CC(=O)NC1C(=O)N(c2ccccc2)N=C1C (stereo not drawn) [compound 12, N-(3-methyl-5-oxo-1-phenyl-4,5-dihydro-1H-pyrazol-4-yl)-acetamide] |  |  | 54.21 |
| CC1=NN(c2cccc([N+](=O)[O-])c2)C(=O)C1Sc1nnnn1-c1ccccc1 (stereo not drawn) [compound 13, 5-methyl-2-(3-nitro-phenyl)-4-(1-phenyl-1H-tetrazol-5-ylsulfanyl)-2,4-dihydro-pyrazol-3-one] |  |  | 74.66 |
| O=C(NC1=NN(c2ccccc2)C(=O)C1Sc1nnnn1-c1ccccc1)c1ccccc1 (stereo not drawn) [compound 14, N-[5-oxo-1-phenyl-4-(1-phenyl-1H-tetrazol-5-ylsulfanyl)-4,5-dihydro-1H-pyrazol-3-yl]-benzamide] |  |  | 61.27 |
| CC1=NN(c2ccccc2)C(=O)C1C1C(=O)N(c2ccccc2)N=C1C (stereo not drawn) [compound 17, 5,5′-dimethyl-2,2′-diphenyl-2,4,2′,4′-tetrahydro [4,4′]bipyrazole-3,3′-dione] |  |  | 60.96 |
| COc1ccc(-c2csc(SC3C(=O)N(c4ccccc4)N=C3C)n2)cc1 (stereo not drawn) [compound 19] |  |  | 40.19 |
| CCCC1=NN(c2ccccc2)C(=O)C1CC(=O)c1ccccc1 (stereo not drawn) [compound 20] |  |  | 83.12 |
| CC1=NN(c2ccccc2)C(=O)C1Sc1nc(-c2ccc(C)cc2)cs1 (stereo not drawn) [compound 21, 5-methyl-2-phenyl-4-(4-p-toluyl-thiazol-2-ylsulfanyl)-2,4-dihydro-pyrazole-3-one] |  |  | 42.07 |
| CC1=NN(c2ccc(F)cc2)C(=O)C1C(c1ccccc1O)c1c(C)nn(-c2ccc(F)cc2)c1O (stereo not drawn) [compound 22, 2-(4-fluoro-phenyl)-4-[[1-(4-fluoro-phenyl)-5-hydroxy-3-methyl-1H-pyrazol-4-yl]-(2-hydroxy-phenyl)-methyl]-5-methyl-2,4-dihydro-pyrazol-3-one] |  |  | 2.9 |
| CC1=NN(c2ccccc2)C(=O)C1(O)S(=O)(=O)[O-].[Na+] (stereo not drawn) [compound 25, sodium 4-hydroxy-3-methyl-5-oxo-1-phenyl-4,5-dihydro-1H-pyrazole-4-sulfonate] |  |  | 38.80 |
